According to US20110257161A1 (priority 2008, published 2011):
Where a name gives a salt, the structure may show the parent alone.

Target: α7-subtype of nicotinic receptors (Rattus norvegicus, UniProt Q05941)
Assay: biochemical
Format: binding

α7-subtype of nicotinic receptors, sequence (Q05941 23-502): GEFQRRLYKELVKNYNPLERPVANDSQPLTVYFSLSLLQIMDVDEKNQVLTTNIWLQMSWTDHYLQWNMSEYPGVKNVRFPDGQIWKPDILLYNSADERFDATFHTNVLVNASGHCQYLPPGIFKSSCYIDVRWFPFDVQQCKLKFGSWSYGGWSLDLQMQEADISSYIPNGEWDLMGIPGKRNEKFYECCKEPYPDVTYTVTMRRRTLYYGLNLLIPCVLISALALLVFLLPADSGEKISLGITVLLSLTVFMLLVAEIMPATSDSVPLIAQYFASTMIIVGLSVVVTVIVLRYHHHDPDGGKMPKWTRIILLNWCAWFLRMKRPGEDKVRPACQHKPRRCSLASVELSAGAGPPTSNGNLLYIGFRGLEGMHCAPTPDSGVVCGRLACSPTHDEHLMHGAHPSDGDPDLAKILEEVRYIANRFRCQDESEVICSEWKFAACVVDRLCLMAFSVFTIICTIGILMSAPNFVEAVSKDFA

O=c1c2ccccc2ncn1-c1ccc(N2CCN3CCC2CC3)cc1 [Compound E1, 3-[4-(1,4-Diaza-bicyclo[3.2.2]non-4-yl)-phenyl]-3H-quinazolin-4-one fumaric acid salt]
IC50: 130 nM

O=c1c2ccccc2nnn1-c1ccc(N2CCN3CCC2CC3)cc1 [Compound D1, 3-[4-(1,4-Diaza-bicyclo[3.2.2]non-4-yl)-phenyl]-3H-benzo[d][1,2,3]triazin-4-one fumaric acid salt]
IC50: 22 nM
